# Results reported in patent publication US20150335677A1, “Argon is a mu opioid receptor antagonist” (priority 2014, published 2015).
# How the values were obtained:
# [1] = tested on: Sprague-Dawley rats; test: Social interaction in open field; type: in vivo, rat; settings: argon 75 vol % 3 h day 1 to day 3 vs air; recorded after treatment on days 1 to 3 and on day 7; P<0.05
# Procedure: (§1) In a first series of experiments, male adult Sprague-Dawley rats (n=6 per group) were treated for 3 h from day 1 to day 3 with ‘medical’ air (composed of 75 vol % nitrogen and 25 vol % oxygen) or argon at 75 vol % (with the remainder being oxygen) at a flow rate of 5 L/min in a closed chamber. None of the animals were habituated to handling with their abdomen side up. Immediately after being treated with either air or argon from day 1 to day 3, and on day 7, rats were handled by an experimenter blind of the rats' gas treatment, with their back placed in the palm of the experimenter and their abdomen side up. The rat's stress level was rated both by the experimenter and an additional observer, also blind of the rats' gas treatment, by counting the number of righting reflex of the animals during a 1-min period on a scale of 0 to 3 with 0 being a total absence of righting reflex and 3 being repetitive righting reflexes. Then, the rats' social interaction was also evaluated. The animals were placed by group of 2 in an open field measuring 90 cm×90 cm for a 10-min period, and the time spent by the animals at a distance comprised between 2 and 5 cm was recorded and taken as a behavioral marker of social interaction.
# [2] = tested on: type A γ-aminobutyric acid (GABA) and benzodiazepine receptors; settings: pressure of around 15 atmospheres absolute; cited from earlier work
# [3] = tested on: spontaneously hypertensive rats; test: Locomotor activity in spontaneously hypertensive rats (ADHD model); type: in vivo, rat; settings: argon 75 vol % 3 h daily day 1 to day 3 vs medical air; recorded on day 7; P<0.02
# Procedure: Male spontaneously hypertensive rats (n=7-8 per group), known to show spontaneous locomotor hyperactivity and used as a model for the attention deficit and hyperactivity disorder (ADHD), were treated daily from day 1 to day 3 for 3 h with ‘medical’ air (composed of 75 vol % nitrogen and 25 vol % oxygen) or argon at 75 vol % (with the remainder being oxygen) at a flow rate of 5 L/min in a closed chamber. On day 7, rats were habituated to the activity boxes for 1 h before being recorded for locomotor activity for 1 h 30 min as detailed previously (David et al., Neuropharmacol., 2004).
# [4] = target: T1, mu opioid receptor (Rattus norvegicus, UniProt P33535); test: [3H]-DAMGO binding in rat whole-brain membrane protein preparations; settings: 100 vol % argon compared to 100 vol % nitrogen
# T1 construct: Membrane preparations were obtained from whole brains of rats untreated (n=4); from tissue; host or cells: rat whole brain membranes
# Procedure: Membrane preparations were obtained from whole brains of rats untreated (n=4). The brains were crushed and homogenized in TRIS-HCl 50 mM buffer. After centrifugation, the bases of the vials were suspended in the same volume of TRIS-HCl buffer (×2). When the membrane preparation was obtained, the proteins were quantified to prepare in fine a solution at 1 mg/ml. Proteins were quantified using a BCA protein assay. Then, binding studies were performed as follows: solutions to allow calculating total binding were prepared by adding 385 μL of a TRIS-HCl buffer to 330 μL of proteins and 385 μL of [^3H]-DAMGO at decreasing concentrations (n=2 per dose, N=12). Solutions to allow calculating non-specific binding were prepared in the same fashion with naloxone instead of buffer. The vials containing these solutions were left open and placed in a closed chamber to allow saturating the solutions with 100 vol % nitrogen or argon. 1000 μL of each vial were placed in a 24-well plate coated with polyethylenimine. After drying, 100 μL scintillant was added to allow counting radioactivity (×3). Specific binding was obtained by subtracting non-specific binding to total binding, and Bmax, Kd, and Bmax×1/Kd (mu receptor activity) were calculated.
# [5] = normobaric and hyperbaric pressures of 1 to 4 atmospheres absolute; cited from earlier work
# [6] = target: T2, type 2 vesicular monoamine transporter (Rattus norvegicus, UniProt Q01827); test: Carrier-mediated and KCl-evoked dopamine release in nucleus accumbens brain slices with amphetamine; type: cell-based
# T2 construct: Coronal brain slices (400 μm thickness) including the nucleus accumbens; from tissue; host or cells: rat nucleus accumbens brain slices
# Procedure: Rats were killed by decapitation and the brains were carefully removed and placed in ice-cold artificial cerebrospinal fluid (aCSF). Coronal brain slices (400 μm thickness) including the nucleus accumbens (anteriority: −1.2 to +2 mm from the bregma) were cut using a tissue chopper. Before being used, brain slices (n=4 per condition) were allowed to recover at room temperature for 1 hour in oxygenated a CSF. […] Control slices were treated with saline solution and air. Carrier-mediated and depolarization-dependent (KCl: 100 mM) dopamine release in the nucleus accumbens were monitored using a polarograph and standard glass-encased nafion-precoated carbon fiber electrodes (David H. N. et al., Biol. Psych., 2006). […] Therefore, in the experiments with argon, argon was only administered after Peak 1 (P1) KCl-evoked dopamine release had returned to baseline (B2).
# [7] = tested on: Sprague-Dawley rats; test: Stress level: righting reflex when handled abdomen side up; type: in vivo, rat; settings: argon 75 vol % 3 h day 1 to day 3 vs air; recorded after treatment on days 1 to 3 and on day 7; P<0.05
# Procedure: as §1
# [8] = tested on: Sprague-Dawley rats; test: Time in central area of open field after electric shock conditioning; type: in vivo, rat; settings: argon 75 vol % 3 h day 4 to day 6 vs air; recorded on days 4 to 6 and on day 8; P<0.05
# Procedure: In a second series of experiments, from day 1 to day 3, additional male Sprague-Dawley rats (n=6 per group) were placed for 10 min in an open field measuring 90 cm×90 cm, which central area measuring 50 cm×50 cm was equipped for delivering an electric shock to the animals that stayed more than 5 s in the area. From day 4 to day 6, the animals were treated for 3 h with medical air or argon at 75 vol % at a flow rate of 5 L/min in a closed chamber. Immediately after being treated with either air or argon from day 4 to day 6, and on day 8, rats were placed in the open field, and recorded during a 10-min period for the time that they spent in the central area whose electrical circuit was switched off.
# T2 sequence (Q01827 whole entry): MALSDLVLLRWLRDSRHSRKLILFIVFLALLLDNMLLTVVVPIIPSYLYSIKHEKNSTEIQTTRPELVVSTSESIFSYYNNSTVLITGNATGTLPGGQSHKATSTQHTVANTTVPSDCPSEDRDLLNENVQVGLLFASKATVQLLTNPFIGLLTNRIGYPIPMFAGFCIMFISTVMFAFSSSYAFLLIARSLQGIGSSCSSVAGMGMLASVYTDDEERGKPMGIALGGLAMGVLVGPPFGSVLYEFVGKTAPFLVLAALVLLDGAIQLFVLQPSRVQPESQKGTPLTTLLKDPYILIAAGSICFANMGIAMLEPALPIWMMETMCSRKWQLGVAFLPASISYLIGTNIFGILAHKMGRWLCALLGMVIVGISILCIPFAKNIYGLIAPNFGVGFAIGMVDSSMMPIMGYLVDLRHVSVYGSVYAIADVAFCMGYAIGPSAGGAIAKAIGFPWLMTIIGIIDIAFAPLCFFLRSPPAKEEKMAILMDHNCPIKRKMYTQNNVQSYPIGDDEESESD
# T1 sequence (P33535 whole entry): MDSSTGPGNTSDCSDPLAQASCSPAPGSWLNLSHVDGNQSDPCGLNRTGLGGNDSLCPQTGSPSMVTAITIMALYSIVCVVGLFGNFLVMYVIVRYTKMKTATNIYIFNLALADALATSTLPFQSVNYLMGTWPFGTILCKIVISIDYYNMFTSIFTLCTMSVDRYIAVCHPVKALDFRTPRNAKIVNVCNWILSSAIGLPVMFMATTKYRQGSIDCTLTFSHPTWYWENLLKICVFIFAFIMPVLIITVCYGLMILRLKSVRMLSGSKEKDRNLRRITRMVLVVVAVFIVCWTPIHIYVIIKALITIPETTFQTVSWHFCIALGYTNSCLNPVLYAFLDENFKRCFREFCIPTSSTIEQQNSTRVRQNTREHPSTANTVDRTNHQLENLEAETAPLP
compound,measurement,setting,value
[Ar] [argon],social interactions,[1],increased number of social interactions
same,action at type A GABA and benzodiazepine receptors,[2],acts as an agonist
same,locomotor activity,[3],lower locomotor activity
same,1/Kd (affinity) of DAMGO binding,[4],trend toward reduction
same,decrease in mu receptor activity (Bmax×1/Kd),[4]; P<0.05,60%
same,decrease of Bmax (number of receptors) of DAMGO binding,[4]; membrane protein preparations,15%
same,side effects of breathing argon,[5],no or minimal side effect
same,effect on Peak 2 KCl-evoked dopamine release,"[6]; amphetamine in the presence of air or argon, KCl 100 mM",lack of effect
same,effect on amphetamine-induced reduction in Peak 3 (P3) KCl-evoked dopamine release,"[6]; argon 75 vol % vs air, with amphetamine, KCl 100 mM, P<0.02",further potentiates the reduction
same,effect on amphetamine-induced increase in carrier-mediated dopamine release,"[6]; argon 75 vol % vs air, with amphetamine, rat nucleus accumbens slices, P<0.02",decreases the facilitating action of amphetamine
same,number of righting reflex when handled abdomen side up,[7],reduced number of righting reflex
same,time spent in central area of the open field,[8],penetrated the central area of the open field to a greater extent
